Measured values reported in the supplement of paper PMC10307832.

Experiments:
Test in all cases: relative viability (nuclei count vs DMSO), 5 days (fraction); higher = more cells survive
[1] = compound: CN(C)C[C@@H]1CCn2cc(c3ccccc32)C2=C(C(=O)NC2=O)c2cn(c3ccccc23)CCO1 [Ruboxistaurin] + CS(=O)(=O)CCNCc1ccc(-c2ccc3ncnc(Nc4ccc(OCc5cccc(F)c5)c(Cl)c4)c3c2)o1 [Lapatinib] (partner 2 µM)
Method in brief: (§1)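 Lung cancer cell lines were seeded in 1536-well plates and dosed by pin tool the next day, with either a single drug or a fixed anchor-drug dose combined with five library-drug doses (not always all listed) spaced in √10 steps. Five days later, one step fixed the cells and stained their nuclei (final 0.05% Triton X-100, 1% formaldehyde, 1 ug/ml Hoechst), and nuclei were counted on 4× images. Relative viability is the nuclei count in treated wells divided by the count in vehicle wells, and each value is the median of duplicate plates.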

[2] = compound: CN(C)C[C@@H]1CCn2cc(c3ccccc32)C2=C(C(=O)NC2=O)c2cn(c3ccccc23)CCO1 [Ruboxistaurin] + CS(=O)(=O)N1CCN(Cc2cc3nc(-c4cccc5[nH]ncc45)nc(N4CCOCC4)c3s2)CC1 [Pictilisib] (partner 1 µM)
Method in brief: as §1

[3] = compound: CN(C)C[C@@H]1CCn2cc(c3ccccc32)C2=C(C(=O)NC2=O)c2cn(c3ccccc23)CCO1 [Ruboxistaurin] + Cc1nc(NC(=O)N2CCC[C@H]2C(N)=O)sc1-c1ccnc(C(C)(C)C(F)(F)F)c1 [Alpelisib] (partner 2 µM)
Method in brief: as §1

[4] = compound: CN(C)C[C@@H]1CCn2cc(c3ccccc32)C2=C(C(=O)NC2=O)c2cn(c3ccccc23)CCO1 [Ruboxistaurin] + Cc1nc(Nc2ncc(C(=O)Nc3c(C)cccc3Cl)s2)cc(N2CCN(CCO)CC2)n1 [Dasatinib] (partner 0.075 µM)
Method in brief: as §1

[5] = compound: CN(C)C[C@@H]1CCn2cc(c3ccccc32)C2=C(C(=O)NC2=O)c2cn(c3ccccc23)CCO1 [Ruboxistaurin] + N=C(N)NC(=N)NCCc1ccccc1 [Phenformin] (partner 250 µM)
Method in brief: as §1

Row | Cell Line | relative viability ([1]; first compound 0.08 µM) | relative viability ([1]; first compound 0.8 µM) | relative viability ([1]; first compound 2.53 µM) | relative viability ([1]; first compound 8 µM) | relative viability ([2]; first compound 0.08 µM) | relative viability ([2]; first compound 0.8 µM) | relative viability ([2]; first compound 2.53 µM) | relative viability ([2]; first compound 8 µM) | relative viability ([3]; first compound 0.08 µM) | relative viability ([3]; first compound 0.8 µM) | relative viability ([3]; first compound 2.53 µM) | relative viability ([3]; first compound 8 µM) | relative viability ([4]; first compound 0.08 µM) | relative viability ([4]; first compound 0.8 µM) | relative viability ([4]; first compound 2.53 µM) | relative viability ([4]; first compound 8 µM) | relative viability ([5]; first compound 0.08 µM) | relative viability ([5]; first compound 0.8 µM) | relative viability ([5]; first compound 2.53 µM) | relative viability ([5]; first compound 8 µM)
1 | NCI-H1651 | 0.828 | 0.697 | 0.843 | 0.717 | 0.63 | 0.531 | 0.502 | 0.624 | 1.04 | 0.755 | 0.974 | 0.797 | 0.436 | 0.339 | 0.356 | 0.435 | 0.342 | 0.312 | 0.332 | 0.319
2 | NCI-H1666 | 0.596 | 0.529 | 0.783 | 0.659 | 0.413 | 0.355 | 0.474 | 0.421 | 1.12 | 0.809 | 0.789 | 0.585 | 0.82 | 0.844 | 0.764 | 0.92 | 0.598 | 0.533 | 0.583 | 0.584
3 | NCI-H1734 | 1.1 | 0.984 | 1.11 | 0.445 | 0.471 | 0.398 | 0.46 | 0.352 | 0.768 | 0.641 | 0.663 | 0.57 | 0.559 | 0.39 | 0.437 | 0.347 | 0.495 | 0.342 | 0.406 | 0.323
4 | NCI-H1755 | 1.05 | 1 | 1.01 | 1.07 | 0.422 | 0.362 | 0.373 | 0.264 | 0.962 | 0.839 | 0.897 | 0.834 | 0.455 | 0.387 | 0.402 | 0.346 | 0.678 | 0.584 | 0.586 | 0.635
5 | NCI-H1792 | 0.903 | 0.892 | 0.916 | 0.933 | 0.258 | 0.231 | 0.246 | 0.233 | 0.77 | 0.62 | 0.695 | 0.694 | 0.829 | 0.667 | 0.77 | 0.781 | 0.32 | – | 0.247 | 0.243
6 | NCI-H1793 | 0.845 | 0.641 | 0.909 | 0.841 | 0.454 | 0.288 | 0.478 | 0.316 | 0.939 | 0.517 | 0.615 | 0.817 | 0.371 | 0.377 | 0.442 | 0.506 | 0.412 | 0.321 | 0.422 | 0.408
7 | NCI-H1915 | 1.02 | 0.918 | 0.891 | 0.967 | 0.978 | 0.839 | 0.924 | 0.845 | 1.07 | 1.02 | 1.03 | 1.09 | 0.308 | 0.286 | 0.267 | 0.224 | 0.35 | 0.349 | 0.363 | 0.376
8 | NCI-H1944 | 0.874 | 0.71 | 0.731 | 0.819 | 0.332 | 0.279 | 0.354 | 0.31 | 0.866 | 0.722 | 0.716 | 0.738 | 0.209 | 0.204 | 0.205 | 0.189 | 0.213 | 0.183 | 0.179 | 0.186
9 | NCI-H1975 | 0.93 | 0.821 | 0.906 | 0.826 | 0.302 | 0.235 | 0.252 | 0.211 | 0.678 | 0.565 | 0.561 | 0.447 | 0.381 | 0.278 | 0.291 | 0.257 | 0.431 | 0.392 | 0.414 | 0.418
10 | NCI-H1993 | 0.837 | 0.789 | 0.848 | 0.808 | 0.828 | 0.742 | 0.763 | 0.697 | 0.615 | 0.664 | 0.664 | 0.628 | 0.78 | 0.422 | 0.561 | 0.555 | 0.529 | 0.518 | 0.525 | 0.568
11 | NCI-H2009 | 1.02 | 0.956 | 0.931 | 1.13 | 0.819 | 0.796 | 0.825 | 0.552 | 1.21 | 1.14 | 1.18 | 1.14 | 0.341 | 0.225 | 0.267 | 0.225 | 0.579 | 0.442 | 0.536 | 0.502
12 | NCI-H2023 | 0.862 | 0.679 | 0.913 | 0.628 | 0.243 | 0.179 | 0.194 | 0.156 | 0.633 | 0.565 | 0.605 | 0.415 | 0.579 | 0.453 | 0.523 | 0.439 | 0.448 | 0.388 | 0.445 | 0.383
13 | NCI-H2085 | 0.902 | 0.76 | 0.754 | 0.721 | 0.447 | 0.419 | 0.409 | 0.324 | 0.996 | 0.899 | 0.977 | 0.997 | 0.204 | 0.254 | 0.294 | 0.219 | 0.789 | 0.655 | 0.745 | 0.674
